In US12285431B2, “Treatment of Rb-negative tumors using topoisomerase inhibitors in combination with cyclin dependent kinase 4/6 inhibitors” (G1 Therapeutics, Inc., priority 2014, dated 2025):

Tested on: MCF7 (breast adenocarcinoma, Rb-positive)
Assay: Cellular proliferation assay (CellTiter-Glo), MCF7
Assay type: cell-based
Conditions: Homo sapiens, MCF7, 144 h, cell viability after six days
Description: (§1) Further cellular proliferation assays were conducted using the following cancer cell lines: MCF7 (breast adenocarcinoma—Rb-positive), ZR-75-1 (breast ductal carcinoma—Rb-positive), H69 (human small cell lung cancer—Rb-negative) cells, or A2058 (human metastatic melanoma cells—Rb-negative). These cells were seeded in Costar (Tewksbury, Massachusetts) 3093 96 well tissue culture treated white walled/clear bottom plates. Cells were treated with the compounds of Table 1 as nine point dose response dilution series from 10 uM to 1 nM. Cells were exposed to compounds and then cell viability was determined after either four (H69) or six (MCF7, ZR75-1, A2058) days as indicated using the CellTiter-Glo® luminescent cell viability assay (CTG; Promega, Madison, Wisconsin, United States of America) following the manufacturer's recommendations. Plates were read on BioTek (Winooski, Vermont) Syngergy2 multi-mode plate reader. The Relative Light Units (RLU) were plotted as a result of variable molar concentration and data was analyzed using Graphpad (LaJolla, California) Prism 5 statistical software to determine the EC50 for each compound.

| Compound | EC50 |
| --- | --- |
| C[C@@H]1CN(c2ccc(Nc3ncc4cc5n(c4n3)C3(CCCCC3)CNC5=O)nc2)C[C@H](C)N1C[C@@H](C)O [MM] | 73 nM |
| O=C1NCC2(CCCCC2)n2c1cc1cnc(Nc3ccc(N4CCC(N5CCCCC5)CC4)cn3)nc12 [N] | 28 nM |
| CC1CN(c2ccc(Nc3ncc4cc5n(c4n3)C3(CCCCC3)CNC5=O)nc2)CC(C)N1CC1CC1 (centres unmarked) [OO] | 120 nM |
| CN(C)C1CCN(c2ccc(Nc3ncc4cc5n(c4n3)C3(CCCCC3)CNC5=O)nc2)CC1 [O] | 56 nM |
| CC(C)N1CCN(c2ccc(Nc3ncc4cc5n(c4n3)C3(CCCCC3)CNC5=O)nc2)CC1C (centres unmarked) [PP] | 164 nM |
| C[C@@H]1CN(c2ccc(Nc3ncc4cc5n(c4n3)C3(CCCCC3)CNC5=O)nc2)C[C@H](C)N1 [P] | 60 nM |
| CCN(CC)C1CCN(C2CCN(c3ccc(Nc4ncc5cc6n(c5n4)C4(CCCCC4)CNC6=O)nc3)CC2)C1 (centres unmarked) [RR] | 72 nM |
| C[C@H]1CN(c2ccc(Nc3ncc4cc5n(c4n3)C3(CCCCC3)CNC5=O)nc2)CCN1C [R] | 36 nM |
| CN(C)C1CCN(c2ccc(Nc3ncc4cc5n(c4n3)C3(CCCCC3)CNC5=O)nn2)CC1 [SS] | 94 nM |
| C[C@@H]1CN(c2ccc(Nc3ncc4cc5n(c4n3)C3(CCCCC3)CNC5=O)nc2)CCN1 [V] | 50 nM |
| CC1CN(c2ccc(Nc3ncc4cc5n(c4n3)C3(CCCCC3)CNC5=O)nc2)CCN1CC(C)(C)O (centres unmarked) [W] | 294 nM |
| CN(C)C1CCN(c2ccc(Nc3ncc4cc5n(c4n3)C3(CCCC3)CNC5=O)nc2)CC1 [YY] | 257 nM |
| C[C@H](O)CN1[C@H](C)CN(c2ccc(Nc3ncc4cc5n(c4n3)C3(CCCCC3)CNC5=O)nc2)C[C@@H]1C [Z] | 141 nM |

Tested on: A2058 (human metastatic melanoma cells, Rb-negative)
Assay: Cellular proliferation assay (CellTiter-Glo), A2058
Assay type: cell-based
Conditions: A2058, 144 h, cell viability after six days
Description: as §1

| Compound | EC50 |
| --- | --- |
| C[C@@H]1CN(c2ccc(Nc3ncc4cc5n(c4n3)C3(CCCCC3)CNC5=O)nc2)C[C@H](C)N1C[C@@H](C)O [MM] | > 3000 nM |
| O=C1NCC2(CCCCC2)n2c1cc1cnc(Nc3ccc(N4CCC(N5CCCCC5)CC4)cn3)nc12 [N] | 1440 nM |
| CC1CN(c2ccc(Nc3ncc4cc5n(c4n3)C3(CCCCC3)CNC5=O)nc2)CC(C)N1CC1CC1 (centres unmarked) [OO] | > 3000 nM |
| CN(C)C1CCN(c2ccc(Nc3ncc4cc5n(c4n3)C3(CCCCC3)CNC5=O)nc2)CC1 [O] | 2670 nM |
| C[C@@H]1CN(c2ccc(Nc3ncc4cc5n(c4n3)C3(CCCCC3)CNC5=O)nc2)C[C@H](C)N1 [P] | > 3000 nM |
| CCN(CC)C1CCN(C2CCN(c3ccc(Nc4ncc5cc6n(c5n4)C4(CCCCC4)CNC6=O)nc3)CC2)C1 (centres unmarked) [RR] | 1620 nM |
| C[C@H]1CN(c2ccc(Nc3ncc4cc5n(c4n3)C3(CCCCC3)CNC5=O)nc2)CCN1C [R] | 2630 nM |
| CN(C)C1CCN(c2ccc(Nc3ncc4cc5n(c4n3)C3(CCCCC3)CNC5=O)nn2)CC1 [SS] | 1660 nM |
| C[C@@H]1CN(c2ccc(Nc3ncc4cc5n(c4n3)C3(CCCCC3)CNC5=O)nc2)CCN1 [V] | 1350 nM |
| CC1CN(c2ccc(Nc3ncc4cc5n(c4n3)C3(CCCCC3)CNC5=O)nc2)CCN1CC(C)(C)O (centres unmarked) [W] | > 3000 nM |

Tested on: H69 (human small cell lung cancer, Rb-negative) cells
Assay: Cellular proliferation assay (CellTiter-Glo), H69
Assay type: cell-based
Conditions: NCI-H69, 96 h, cell viability after four days
Description: as §1

| Compound | EC50 |
| --- | --- |
| C[C@@H]1CN(c2ccc(Nc3ncc4cc5n(c4n3)C3(CCCCC3)CNC5=O)nc2)C[C@H](C)N1C[C@@H](C)O [MM] | > 3000 nM |
| O=C1NCC2(CCCCC2)n2c1cc1cnc(Nc3ccc(N4CCC(N5CCCCC5)CC4)cn3)nc12 [N] | > 3000 nM |
| CC1CN(c2ccc(Nc3ncc4cc5n(c4n3)C3(CCCCC3)CNC5=O)nc2)CC(C)N1CC1CC1 (centres unmarked) [OO] | > 3000 nM |
| CN(C)C1CCN(c2ccc(Nc3ncc4cc5n(c4n3)C3(CCCCC3)CNC5=O)nc2)CC1 [O] | > 3000 nM |
| C[C@@H]1CN(c2ccc(Nc3ncc4cc5n(c4n3)C3(CCCCC3)CNC5=O)nc2)C[C@H](C)N1 [P] | > 3000 nM |
| CCN(CC)C1CCN(C2CCN(c3ccc(Nc4ncc5cc6n(c5n4)C4(CCCCC4)CNC6=O)nc3)CC2)C1 (centres unmarked) [RR] | 2890 nM |
| C[C@H]1CN(c2ccc(Nc3ncc4cc5n(c4n3)C3(CCCCC3)CNC5=O)nc2)CCN1C [R] | > 3000 nM |
| CN(C)C1CCN(c2ccc(Nc3ncc4cc5n(c4n3)C3(CCCCC3)CNC5=O)nn2)CC1 [SS] | 2950 nM |
| C[C@@H]1CN(c2ccc(Nc3ncc4cc5n(c4n3)C3(CCCCC3)CNC5=O)nc2)CCN1 [V] | > 3000 nM |
| CC1CN(c2ccc(Nc3ncc4cc5n(c4n3)C3(CCCCC3)CNC5=O)nc2)CCN1CC(C)(C)O (centres unmarked) [W] | > 3000 nM |

Tested on: ZR-75-1 (breast ductal carcinoma, Rb-positive)
Assay: Cellular proliferation assay (CellTiter-Glo), ZR-75-1
Assay type: cell-based
Conditions: Homo sapiens, ZR-75-1, 144 h, cell viability after six days, read-out: ZR75-1 Cellular EC50
Description: as §1

| Compound | EC50 |
| --- | --- |
| C[C@@H]1CN(c2ccc(Nc3ncc4cc5n(c4n3)C3(CCCCC3)CNC5=O)nc2)C[C@H](C)N1C[C@@H](C)O [MM] | 77 nM |
| O=C1NCC2(CCCCC2)n2c1cc1cnc(Nc3ccc(N4CCC(N5CCCCC5)CC4)cn3)nc12 [N] | 24 nM |
| CC1CN(c2ccc(Nc3ncc4cc5n(c4n3)C3(CCCCC3)CNC5=O)nc2)CC(C)N1CC1CC1 (centres unmarked) [OO] | 229 nM |
| CN(C)C1CCN(c2ccc(Nc3ncc4cc5n(c4n3)C3(CCCCC3)CNC5=O)nc2)CC1 [O] | 29 nM |
| CC(C)N1CCN(c2ccc(Nc3ncc4cc5n(c4n3)C3(CCCCC3)CNC5=O)nc2)CC1C (centres unmarked) [PP] | 66 nM |
| C[C@@H]1CN(c2ccc(Nc3ncc4cc5n(c4n3)C3(CCCCC3)CNC5=O)nc2)C[C@H](C)N1 [P] | 43 nM |
| C[C@H]1CN(c2ccc(Nc3ncc4cc5n(c4n3)C3(CCCCC3)CNC5=O)nc2)CCN1C [R] | 50 nM |
| CN(C)C1CCN(c2ccc(Nc3ncc4cc5n(c4n3)C3(CCCCC3)CNC5=O)nn2)CC1 [SS] | 53 nM |
| C[C@@H]1CN(c2ccc(Nc3ncc4cc5n(c4n3)C3(CCCCC3)CNC5=O)nc2)CCN1 [V] | 29 nM |
| CN(C)C1CCN(c2ccc(Nc3ncc4cc5n(c4n3)C3(CCCC3)CNC5=O)nc2)CC1 [YY] | 581 nM |
| C[C@H](O)CN1[C@H](C)CN(c2ccc(Nc3ncc4cc5n(c4n3)C3(CCCCC3)CNC5=O)nc2)C[C@@H]1C [Z] | 54 nM |

Molecular target: CDK4/CyclinD1 (Homo sapiens, UniProt P11802)
Sequence (P11802 whole entry, species assumed): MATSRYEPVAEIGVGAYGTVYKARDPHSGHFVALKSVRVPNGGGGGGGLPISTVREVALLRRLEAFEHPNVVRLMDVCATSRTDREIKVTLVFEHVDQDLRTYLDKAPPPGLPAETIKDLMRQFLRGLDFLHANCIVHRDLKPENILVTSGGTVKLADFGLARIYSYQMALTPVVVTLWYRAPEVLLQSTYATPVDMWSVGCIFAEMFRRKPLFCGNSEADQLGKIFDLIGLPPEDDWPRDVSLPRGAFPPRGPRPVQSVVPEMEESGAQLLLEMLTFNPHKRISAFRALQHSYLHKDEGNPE
Sequence (P24385 whole entry partner, species assumed): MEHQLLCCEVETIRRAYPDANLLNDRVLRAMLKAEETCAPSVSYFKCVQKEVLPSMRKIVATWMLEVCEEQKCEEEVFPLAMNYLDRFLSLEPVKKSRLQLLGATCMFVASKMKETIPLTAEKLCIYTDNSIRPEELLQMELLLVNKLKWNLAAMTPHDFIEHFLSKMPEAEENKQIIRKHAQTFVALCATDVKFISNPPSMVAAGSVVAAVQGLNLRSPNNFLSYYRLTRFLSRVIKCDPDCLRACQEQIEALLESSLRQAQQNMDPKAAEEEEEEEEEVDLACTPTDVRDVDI
Assay: CDK4/cyclinD1 kinase assay (Nanosyn, Caliper microfluidic kinase detection)
Assay type: biochemical
Conditions: Table 2; 12-point dose-response, ATP at Km (200 μM), 10 hr; read-out: CDK4/CycD1 IC50
Description: The assays were performed using microfluidic kinase detection technology (Caliper Assay Platform). The compounds were tested in 12-point dose-response format in singlicate at Km for ATP. Phosphoacceptor substrate peptide concentration used was 1 μM for all assays and Staurosporine was used as the reference compound for all assays. Specifics of each assay are as described below:
CDK4/CyclinD1: Enzyme concentration: 1 nM; ATP concentration: 200 μM; Incubation time: 10 hr.

| Compound | IC50 |
| --- | --- |
| C[C@@H]1CN(c2ccc(Nc3ncc4cc5n(c4n3)C3(CCCCC3)CNC5=O)nc2)C[C@H](C)N1C[C@@H](C)O [MM] | 1.8 nM |
| O=C1NCC2(CCCCC2)n2c1cc1cnc(Nc3ccc(N4CCC(N5CCCCC5)CC4)cn3)nc12 [N] | 1 nM |
| CC(C)N1CCN(c2ccc(Nc3ncc4cc5n(c4n3)C3(CCCCC3)CNC5=O)nc2)CC1C (centres unmarked) [PP] | 3.1 nM |
| C[C@@H]1CN(c2ccc(Nc3ncc4cc5n(c4n3)C3(CCCCC3)CNC5=O)nc2)C[C@H](C)N1 [P] | 3.3 nM |
| CCN(CC)C1CCN(C2CCN(c3ccc(Nc4ncc5cc6n(c5n4)C4(CCCCC4)CNC6=O)nc3)CC2)C1 (centres unmarked) [RR] | 1.2 nM |
| C[C@H]1CN(c2ccc(Nc3ncc4cc5n(c4n3)C3(CCCCC3)CNC5=O)nc2)CCN1C [R] | 0.5 nM |
| CN(C)C1CCN(c2ccc(Nc3ncc4cc5n(c4n3)C3(CCCCC3)CNC5=O)nn2)CC1 [SS] | 0.8 nM |
| C[C@@H]1CN(c2ccc(Nc3ncc4cc5n(c4n3)C3(CCCCC3)CNC5=O)nc2)CCN1 [V] | 2.9 nM |
| CC1CN(c2ccc(Nc3ncc4cc5n(c4n3)C3(CCCCC3)CNC5=O)nc2)CCN1CC(C)(C)O (centres unmarked) [W] | 2.7 nM |
| CN(C)C1CCN(c2ccc(Nc3ncc4cc5n(c4n3)C3(CCCC3)CNC5=O)nc2)CC1 [YY] | 4.6 nM |
| C[C@H](O)CN1[C@H](C)CN(c2ccc(Nc3ncc4cc5n(c4n3)C3(CCCCC3)CNC5=O)nc2)C[C@@H]1C [Z] | 3.2 nM |

Tested on: HS68 cells
Assay: G1 arrest (cellular G1 and S-phase) assay, propidium iodide flow cytometry
Assay type: cell-based, human
Conditions: Homo sapiens, Hs68, HS68 cells
Description: HS68 cells (human skin fibroblast cell line (Rb-positive)) were stained with propidium iodide staining solution and run on Dako Cyan Flow Cytometer. The fraction of cells in G0-G1 DNA cell cycle versus the fraction in S-phase DNA cell cycle was determined using FlowJo 7.2.2 analysis.
The compounds listed in Table 1 were tested for their ability to arrest HS68 cells at the G1 phase of the cell cycle.

| Compound | EC50 |
| --- | --- |
| C[C@@H]1CN(c2ccc(Nc3ncc4cc5n(c4n3)C3(CCCCC3)CNC5=O)nc2)C[C@H](C)N1C[C@@H](C)O [MM] | 100 nM |
| O=C1NCC2(CCCCC2)n2c1cc1cnc(Nc3ccc(N4CCC(N5CCCCC5)CC4)cn3)nc12 [N] | 25 nM |
| CC1CN(c2ccc(Nc3ncc4cc5n(c4n3)C3(CCCCC3)CNC5=O)nc2)CC(C)N1CC1CC1 (centres unmarked) [OO] | 95 nM |
| CN(C)C1CCN(c2ccc(Nc3ncc4cc5n(c4n3)C3(CCCCC3)CNC5=O)nc2)CC1 [O] | 40 nM |
| CC(C)N1CCN(c2ccc(Nc3ncc4cc5n(c4n3)C3(CCCCC3)CNC5=O)nc2)CC1C (centres unmarked) [PP] | 100 nM |
| C[C@@H]1CN(c2ccc(Nc3ncc4cc5n(c4n3)C3(CCCCC3)CNC5=O)nc2)C[C@H](C)N1 [P] | 30 nM |
| CCN(CC)C1CCN(C2CCN(c3ccc(Nc4ncc5cc6n(c5n4)C4(CCCCC4)CNC6=O)nc3)CC2)C1 (centres unmarked) [RR] | 90 nM |
| C[C@H]1CN(c2ccc(Nc3ncc4cc5n(c4n3)C3(CCCCC3)CNC5=O)nc2)CCN1C [R] | 70 nM |
| CN(C)C1CCN(c2ccc(Nc3ncc4cc5n(c4n3)C3(CCCCC3)CNC5=O)nn2)CC1 [SS] | 80 nM |
| C[C@@H]1CN(c2ccc(Nc3ncc4cc5n(c4n3)C3(CCCCC3)CNC5=O)nc2)CCN1 [V] | 70 nM |
| CC1CN(c2ccc(Nc3ncc4cc5n(c4n3)C3(CCCCC3)CNC5=O)nc2)CCN1CC(C)(C)O (centres unmarked) [W] | 160 nM |
| CN(C)C1CCN(c2ccc(Nc3ncc4cc5n(c4n3)C3(CCCC3)CNC5=O)nc2)CC1 [YY] | 175 nM |
| C[C@H](O)CN1[C@H](C)CN(c2ccc(Nc3ncc4cc5n(c4n3)C3(CCCCC3)CNC5=O)nc2)C[C@@H]1C [Z] | 110 nM |
